Earlier results, collected in patent US20070166380A1, “ZOLPIDEM TABLETS” (priority 2005, published 2007).

Conditions: after ingestion of the tablet

Compound: Cc1ccc(-c2nc3ccc(C)cn3c2CC(=O)N(C)C)cc1 [zolpidem, N,N,6-trimethyl-2-(4-methylphenyl)-imidazo [1,2-s]pyridine-3-acetamide]
- time until zolpidem starts acting ('or less'): 15 to 30 min
- duration of action (approximately): 4 to 6 h
